# Laboratory results taken from US20080248511A1, “METHODS TO QUENCH LIGHT FROM OPTICAL REACTIONS” (priority 2007, published 2008).
# Experiments:
# firefly luciferase = firefly luciferase (Photinus pyralis, UniProt P08659); assay: Non-detergent compound screen, firefly luciferase (Example 6); assay type: biochemical; conditions: 0.5% Tergitol NP-9, 0.03% BDDABr; for remaining activity at 10 µM / remaining activity at 100 µM / remaining activity at 1000 µM: read-out: Retained Firefly Luciferase Value (%)
# Method: (§1) Each compound was diluted into 200 mM MOPS pH 6.7, 4 μM MgSO4, 1 mM CDTA, 0.5% Tergitol NP-9, 0.05% Mazu-DF-204, 0.03% BDDABr, 30 mM thiourea, 1 mM bis-(2-mercaptoethylsulfone) (BMS), 4 μM CoA, and 1 μM 5-fluoroluciferin. Just prior to the luciferase reaction, 0.1% Prionex® (Pentapharm) and 2.9 μM coelenterazine-h (Promega) were added to each solution.
# (§2) The firefly luciferase and Renilla luciferase enzymes were diluted as described in Examples 3 and 5. The luciferase reactions were initiated by adding 50 μl of the firefly luciferase and Renilla luciferase enzyme solution to 50 μl of reagent solution. The reactions were performed as described above. The retained Renilla and firefly luciferase-mediated luminescence and selectivity values for each inhibitor tested are listed in Table 6.
# Renilla luciferase = molecular target: T1, Renilla luciferase (Renilla reniformis, UniProt P27652); assay: Non-detergent compound screen, Renilla luciferase (Example 6); assay type: biochemical; conditions: for Retained Renilla Luciferase Value (%) / remaining activity at 10 µM / remaining activity at 100 µM / remaining activity at 1000 µM: 0.5% Tergitol NP-9, 0.03% BDDABr; for remaining activity at 10 µM / remaining activity at 100 µM / remaining activity at 1000 µM: read-out: Retained Renilla Luciferase Value (%)
# T1 sequence (P27652 1-311): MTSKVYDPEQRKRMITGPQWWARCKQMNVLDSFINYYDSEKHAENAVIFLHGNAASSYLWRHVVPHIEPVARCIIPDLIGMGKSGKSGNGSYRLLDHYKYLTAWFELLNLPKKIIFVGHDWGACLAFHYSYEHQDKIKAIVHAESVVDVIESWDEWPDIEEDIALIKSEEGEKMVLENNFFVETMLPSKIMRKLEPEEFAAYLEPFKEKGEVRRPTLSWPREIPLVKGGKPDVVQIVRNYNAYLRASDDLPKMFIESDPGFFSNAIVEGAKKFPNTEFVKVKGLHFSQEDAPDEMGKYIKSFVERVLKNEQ
# Method: as §1, §2
# Chain of firefly luciferase (P08659 whole entry): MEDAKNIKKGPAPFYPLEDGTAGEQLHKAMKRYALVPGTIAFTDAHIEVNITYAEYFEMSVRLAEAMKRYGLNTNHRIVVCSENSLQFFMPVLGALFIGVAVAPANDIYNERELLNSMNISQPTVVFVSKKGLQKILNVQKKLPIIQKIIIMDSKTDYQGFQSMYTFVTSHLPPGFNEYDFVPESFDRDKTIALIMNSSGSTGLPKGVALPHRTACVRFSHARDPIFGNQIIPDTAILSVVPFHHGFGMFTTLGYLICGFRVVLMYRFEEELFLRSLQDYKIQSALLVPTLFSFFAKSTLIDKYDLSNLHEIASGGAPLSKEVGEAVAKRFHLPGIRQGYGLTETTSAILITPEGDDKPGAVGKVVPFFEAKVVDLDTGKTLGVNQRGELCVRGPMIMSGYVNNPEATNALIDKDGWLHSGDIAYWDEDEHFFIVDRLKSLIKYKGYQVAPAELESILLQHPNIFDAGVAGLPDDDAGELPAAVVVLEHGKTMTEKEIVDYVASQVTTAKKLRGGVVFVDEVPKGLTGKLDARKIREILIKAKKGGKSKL
smiles,measurement,setting,value
"CCCCCCCC[N+](C)(C)CCc1c[nH]c2ccc(/C=C/C(=O)NCc3ccc(OC)cc3)cc12.[I-] [Compound 3070, (E)-N-(2-(5-(3-(4-methoxybenzylamino)-3-oxoprop-1-enyl)-1H-indol-3-yl)ethyl)-N,N-dimethyloctan-1-ammonium iodide]",Retained Firefly Luciferase Value (%),firefly luciferase; inhibitor 10 μM,99%
same,Retained Firefly Luciferase Value (%),firefly luciferase; inhibitor 100 μM,96%
same,Retained Firefly Luciferase Value (%),firefly luciferase; inhibitor 1000 μM,86%
same,"inhibitor of Renilla luciferase, grade in words",Renilla luciferase,excellent inhibitors of Renilla luciferase
same,Selectivity Value,Renilla luciferase; inhibitor 10 μM,3.3
same,Retained Renilla Luciferase Value (%),Renilla luciferase; inhibitor 10 μM,30%
same,Selectivity Value,Renilla luciferase; inhibitor 100 μM,16
same,Retained Renilla Luciferase Value (%),Renilla luciferase; inhibitor 100 μM,6%
same,Selectivity Value,Renilla luciferase; inhibitor 1000 μM,78.2
same,Retained Renilla Luciferase Value (%),Renilla luciferase; inhibitor 1000 μM,1.1%
"COc1ccc(CNC(=O)/C=C/c2ccc3[nH]cc(CCCN(C)C)c3c2)cc1 [Compound 3071, (E)-3-(3-(3-(dimethylamino)propyl)-1H-indol-5-yl)-N-(4-methoxybenzyl)acrylamide]",remaining activity at 10 µM,firefly luciferase; inhibitor 10 μM,101%
same,remaining activity at 100 µM,firefly luciferase; inhibitor 100 μM,101%
same,remaining activity at 1000 µM,firefly luciferase; inhibitor 1000 μM,100%
same,"inhibitor of Renilla luciferase, grade in words",Renilla luciferase,excellent inhibitors of Renilla luciferase
same,Selectivity Value,Renilla luciferase; inhibitor 10 μM,1.8
same,remaining activity at 10 µM,Renilla luciferase; inhibitor 10 μM,57%
same,Selectivity Value,Renilla luciferase; inhibitor 100 μM,6.7
same,remaining activity at 100 µM,Renilla luciferase; inhibitor 100 μM,15%
same,Selectivity Value,Renilla luciferase; inhibitor 1000 μM,40
same,remaining activity at 1000 µM,Renilla luciferase; inhibitor 1000 μM,2.5%
"COc1cc(CNC(=O)/C=C/c2ccc3[nH]cc(CCN(C)C)c3c2)cc(OC)c1OC [Compound 3072, (E)-3-(3-(2-(dimethylamino)ethyl)-1H-indol-5-yl)-N-(3,4,5-trimethoxybenzyl)acrylamide]",remaining activity at 10 µM,firefly luciferase; inhibitor 10 μM,101%
same,remaining activity at 100 µM,firefly luciferase; inhibitor 100 μM,101%
same,remaining activity at 1000 µM,firefly luciferase; inhibitor 1000 μM,101%
same,"inhibitor of Renilla luciferase, grade in words",Renilla luciferase,inhibitors of Renilla luciferase
same,Selectivity Value,Renilla luciferase; inhibitor 10 μM,1
same,remaining activity at 10 µM,Renilla luciferase; inhibitor 10 μM,101%
same,Selectivity Value,Renilla luciferase; inhibitor 100 μM,1.1
same,remaining activity at 100 µM,Renilla luciferase; inhibitor 100 μM,95%
same,Selectivity Value,Renilla luciferase; inhibitor 1000 μM,1.8
same,remaining activity at 1000 µM,Renilla luciferase; inhibitor 1000 μM,55.2%
"COc1cc(OC)c(CNC(=O)/C=C/c2ccc3[nH]cc(CCN(C)C)c3c2)c(OC)c1 [Compound 3073, (E)-3-(3-(2-(dimethylamino)ethyl)-1H-indol-5-yl)-N-(2,4,6-trimethoxybenzyl)acrylamide]",remaining activity at 10 µM,firefly luciferase; inhibitor 10 μM,101%
same,remaining activity at 100 µM,firefly luciferase; inhibitor 100 μM,100%
same,remaining activity at 1000 µM,firefly luciferase; inhibitor 1000 μM,101%
same,"inhibitor of Renilla luciferase, grade in words",Renilla luciferase,inhibitors of Renilla luciferase
same,Selectivity Value,Renilla luciferase; inhibitor 10 μM,0.99
same,remaining activity at 10 µM,Renilla luciferase; inhibitor 10 μM,102%
same,Selectivity Value,Renilla luciferase; inhibitor 100 μM,1.5
same,remaining activity at 100 µM,Renilla luciferase; inhibitor 100 μM,87%
same,Selectivity Value,Renilla luciferase; inhibitor 1000 μM,2.9
same,remaining activity at 1000 µM,Renilla luciferase; inhibitor 1000 μM,34.5%
"CCCCCC[N+](C)(C)CCc1c[nH]c2ccc(/C=C/C(=O)NCc3ccc(OC)cc3)cc12.[I-] [Compound 3078, (E)-N-(2-(5-(3-(4-methoxybenzylamino)-3-oxyprop-1-enyl)-1H-indol-3-yl)ethyl)-N,N-dimethylhexan-1-aminium iodide]",Retained Firefly Luciferase Value (%),firefly luciferase; inhibitor 10 μM,100%
same,Retained Firefly Luciferase Value (%),firefly luciferase; inhibitor 100 μM,100%
same,Retained Firefly Luciferase Value (%),firefly luciferase; inhibitor 1000 μM,99%
same,Selectivity Value,Renilla luciferase; inhibitor 10 μM,20
same,Retained Renilla Luciferase Value (%),Renilla luciferase; inhibitor 10 μM,5.0%
same,Selectivity Value,Renilla luciferase; inhibitor 100 μM,100
same,Retained Renilla Luciferase Value (%),Renilla luciferase; inhibitor 100 μM,1.0%
same,Selectivity Value,Renilla luciferase; inhibitor 1000 μM,990
same,Retained Renilla Luciferase Value (%),Renilla luciferase; inhibitor 1000 μM,0.1%
